# Measured values from ChEMBL document CHEMBL3885881, “DrugMatrix”.
# Organism: Rattus norvegicus
# Test: DrugMatrix - Regimen: Daily Repeat
# Assay type: toxicity, organism-based, Sprague-Dawley
# Parameters: regimen Daily Repeat, gender Male, age 6-8 weeks
# Settings: in vivo, po, route oral GAVAGE, vehicle .5 % CMC; for ABSOLUTE BASOPHIL / ABSOLUTE EOSINOPHIL / ABSOLUTE LYMPHOCYTE / ABSOLUTE MONOCYTE / ABSOLUTE SEGMENTED NEUTROPHIL / BASOPHIL / EOSINOPHIL / ERYTHROCYTE COUNT / HEMATOCRIT / HEMOGLOBIN / LEUKOCYTE COUNT / LYMPHOCYTE / MEAN CORPUSCULAR HEMOGLOBIN / MEAN CORPUSCULAR HEMOGLOBIN CONCENTRATION / MEAN CORPUSCULAR VOLUME / MONOCYTE / NEUTROPHIL / NUCLEATED RED BLOOD CELLS / PLATELET COUNT: tissue Blood; for ALANINE AMINOTRANSFERASE / ALBUMIN / ALKALINE PHOSPHATASE / ASPARTATE AMINOTRANSFERASE / BLOOD UREA NITROGEN / CARBON DIOXIDE / CHLORIDE / CHOLESTEROL / CREATINE PHOSPHOKINASE / CREATININE / GLUCOSE / LACTATE DEHYDROGENASE / LIPASE / PHOSPHORUS / POTASSIUM / SODIUM / TOTAL BILIRUBIN / TOTAL PROTEIN / URIC ACID: tissue Plasma
# [1] = 300 mg/kg, 72 h, dose level Low, time 3 day
# [2] = 300 mg/kg, 120 h, dose level Low, time 5 day
# [3] = 2000 mg/kg, 72 h, dose level High, time 3 day
# [4] = 2000 mg/kg, 120 h, dose level High, time 5 day
compound,measurement,setting,value
CC1(C)S[C@@H]2[C@H](NC(=O)[C@H](N)c3ccccc3)C(=O)N2[C@H]1C(=O)O [AMPICILLIN],ABSOLUTE BASOPHIL,[1],0 CELLS/uL
same,ABSOLUTE EOSINOPHIL,[1],0 CELLS/uL
same,ABSOLUTE LYMPHOCYTE,[1],16747 CELLS/uL
same,ABSOLUTE MONOCYTE,[1],205.33 CELLS/uL
same,ABSOLUTE SEGMENTED NEUTROPHIL,[1],2214.33 CELLS/uL
same,BASOPHIL,[1],0%
same,EOSINOPHIL,[1],0%
same,ERYTHROCYTE COUNT,[1],5.53 x10E6/uL
same,HEMATOCRIT,[1],34.2%
same,HEMOGLOBIN,[1],13.4 G/DL
same,LEUKOCYTE COUNT,[1],19.17 x10E3/uL
same,LYMPHOCYTE,[1],87.33%
same,MEAN CORPUSCULAR HEMOGLOBIN,[1],24.23 pg
same,MEAN CORPUSCULAR HEMOGLOBIN CONCENTRATION,[1],39.17 G/DL
same,MEAN CORPUSCULAR VOLUME,[1],61.9 fL
same,MONOCYTE,[1],1%
same,NEUTROPHIL,[1],11.67%
same,NUCLEATED RED BLOOD CELLS,[1],0 /100WBC
same,PLATELET COUNT,[1],1348.33 x10E3/uL
same,ALANINE AMINOTRANSFERASE,[1],47.67 u/L
same,ALBUMIN,[1],4.03 G/DL
same,ALKALINE PHOSPHATASE,[1],258.67 u/L
same,ASPARTATE AMINOTRANSFERASE,[1],88 u/L
same,BLOOD UREA NITROGEN,[1],17.67 mg/dL
same,CARBON DIOXIDE,[1],25.67 mmol/L
same,CHLORIDE,[1],101.33 MEQ/L
same,CHOLESTEROL,[1],82.67 mg/dL
same,CREATINE PHOSPHOKINASE,[1],507.67 u/L
same,CREATININE,[1],0.28 mg/dL
same,GLUCOSE,[1],170 mg/dL
same,LACTATE DEHYDROGENASE,[1],299.67 u/L
same,LIPASE,[1],9.33 u/L
same,PHOSPHORUS,[1],11.7 mg/dL
same,POTASSIUM,[1],6.51 MEQ/L
same,SODIUM,[1],143.9 MEQ/L
same,TOTAL BILIRUBIN,[1],0.17 mg/dL
same,TOTAL PROTEIN,[1],5.87 G/DL
same,URIC ACID,[1],2.2 mg/dL
same,ABSOLUTE BASOPHIL,[2],0 CELLS/uL
same,ABSOLUTE EOSINOPHIL,[2],67.33 CELLS/uL
same,ABSOLUTE LYMPHOCYTE,[2],16228 CELLS/uL
same,ABSOLUTE MONOCYTE,[2],111.33 CELLS/uL
same,ABSOLUTE SEGMENTED NEUTROPHIL,[2],1460 CELLS/uL
same,BASOPHIL,[2],0%
same,EOSINOPHIL,[2],0.33%
same,ERYTHROCYTE COUNT,[2],5.55 x10E6/uL
same,HEMATOCRIT,[2],34.3%
same,HEMOGLOBIN,[2],13.4 G/DL
same,LEUKOCYTE COUNT,[2],17.87 x10E3/uL
same,LYMPHOCYTE,[2],91%
same,MEAN CORPUSCULAR HEMOGLOBIN,[2],24.2 pg
same,MEAN CORPUSCULAR HEMOGLOBIN CONCENTRATION,[2],39.1 G/DL
same,MEAN CORPUSCULAR VOLUME,[2],61.93 fL
same,MONOCYTE,[2],0.67%
same,NEUTROPHIL,[2],8%
same,NUCLEATED RED BLOOD CELLS,[2],0 /100WBC
same,PLATELET COUNT,[2],1271.67 x10E3/uL
same,ALANINE AMINOTRANSFERASE,[2],58.33 u/L
same,ALBUMIN,[2],4.17 G/DL
same,ALKALINE PHOSPHATASE,[2],353 u/L
same,ASPARTATE AMINOTRANSFERASE,[2],84.33 u/L
same,BLOOD UREA NITROGEN,[2],16 mg/dL
same,CARBON DIOXIDE,[2],25.67 mmol/L
same,CHLORIDE,[2],103.33 MEQ/L
same,CHOLESTEROL,[2],80.33 mg/dL
same,CREATINE PHOSPHOKINASE,[2],323.67 u/L
same,CREATININE,[2],0.22 mg/dL
same,GLUCOSE,[2],150.33 mg/dL
same,LACTATE DEHYDROGENASE,[2],269.33 u/L
same,LIPASE,[2],10 u/L
same,PHOSPHORUS,[2],13 mg/dL
same,POTASSIUM,[2],6.3 MEQ/L
same,SODIUM,[2],143.7 MEQ/L
same,TOTAL BILIRUBIN,[2],0.13 mg/dL
same,TOTAL PROTEIN,[2],5.9 G/DL
same,URIC ACID,[2],1.67 mg/dL
same,ABSOLUTE BASOPHIL,[3],0 CELLS/uL
same,ABSOLUTE EOSINOPHIL,[3],156 CELLS/uL
same,ABSOLUTE LYMPHOCYTE,[3],12938 CELLS/uL
same,ABSOLUTE MONOCYTE,[3],42 CELLS/uL
same,ABSOLUTE SEGMENTED NEUTROPHIL,[3],1064 CELLS/uL
same,BASOPHIL,[3],0%
same,EOSINOPHIL,[3],1.33%
same,ERYTHROCYTE COUNT,[3],5.68 x10E6/uL
same,HEMATOCRIT,[3],35.27%
same,HEMOGLOBIN,[3],13.93 G/DL
same,LEUKOCYTE COUNT,[3],14.2 x10E3/uL
same,LYMPHOCYTE,[3],90.33%
same,MEAN CORPUSCULAR HEMOGLOBIN,[3],24.53 pg
same,MEAN CORPUSCULAR HEMOGLOBIN CONCENTRATION,[3],39.5 G/DL
same,MEAN CORPUSCULAR VOLUME,[3],62.13 fL
same,MONOCYTE,[3],0.33%
same,NEUTROPHIL,[3],8%
same,NUCLEATED RED BLOOD CELLS,[3],0 /100WBC
same,PLATELET COUNT,[3],1229.33 x10E3/uL
same,ALANINE AMINOTRANSFERASE,[3],60 u/L
same,ALBUMIN,[3],4.2 G/DL
same,ALKALINE PHOSPHATASE,[3],309 u/L
same,ASPARTATE AMINOTRANSFERASE,[3],77.67 u/L
same,BLOOD UREA NITROGEN,[3],18 mg/dL
same,CARBON DIOXIDE,[3],32 mmol/L
same,CHLORIDE,[3],100.67 MEQ/L
same,CHOLESTEROL,[3],94.33 mg/dL
same,CREATINE PHOSPHOKINASE,[3],141 u/L
same,CREATININE,[3],0.18 mg/dL
same,GLUCOSE,[3],140 mg/dL
same,LACTATE DEHYDROGENASE,[3],104 u/L
same,LIPASE,[3],9.67 u/L
same,PHOSPHORUS,[3],11.33 mg/dL
same,POTASSIUM,[3],6.92 MEQ/L
same,SODIUM,[3],144.13 MEQ/L
same,TOTAL BILIRUBIN,[3],0.17 mg/dL
same,TOTAL PROTEIN,[3],6 G/DL
same,URIC ACID,[3],1.43 mg/dL
same,ABSOLUTE BASOPHIL,[4],0 CELLS/uL
same,ABSOLUTE EOSINOPHIL,[4],45.67 CELLS/uL
same,ABSOLUTE LYMPHOCYTE,[4],13556.33 CELLS/uL
same,ABSOLUTE MONOCYTE,[4],151.67 CELLS/uL
same,ABSOLUTE SEGMENTED NEUTROPHIL,[4],1413 CELLS/uL
same,BASOPHIL,[4],0%
same,EOSINOPHIL,[4],0.33%
same,ERYTHROCYTE COUNT,[4],5.47 x10E6/uL
same,HEMATOCRIT,[4],33.33%
same,HEMOGLOBIN,[4],13.37 G/DL
same,LEUKOCYTE COUNT,[4],15.17 x10E3/uL
same,LYMPHOCYTE,[4],88.67%
same,MEAN CORPUSCULAR HEMOGLOBIN,[4],24.47 pg
same,MEAN CORPUSCULAR HEMOGLOBIN CONCENTRATION,[4],40.1 G/DL
same,MEAN CORPUSCULAR VOLUME,[4],60.97 fL
same,MONOCYTE,[4],1%
same,NEUTROPHIL,[4],10%
same,NUCLEATED RED BLOOD CELLS,[4],0 /100WBC
same,PLATELET COUNT,[4],1262.67 x10E3/uL
same,ALANINE AMINOTRANSFERASE,[4],63.33 u/L
same,ALBUMIN,[4],4.13 G/DL
same,ALKALINE PHOSPHATASE,[4],352 u/L
same,ASPARTATE AMINOTRANSFERASE,[4],99 u/L
same,BLOOD UREA NITROGEN,[4],19.33 mg/dL
same,CARBON DIOXIDE,[4],24 mmol/L
same,CHLORIDE,[4],106.67 MEQ/L
same,CHOLESTEROL,[4],73 mg/dL
same,CREATINE PHOSPHOKINASE,[4],430.33 u/L
same,CREATININE,[4],0.2 mg/dL
same,GLUCOSE,[4],150.33 mg/dL
same,LACTATE DEHYDROGENASE,[4],413.67 u/L
same,LIPASE,[4],9.67 u/L
same,PHOSPHORUS,[4],11.63 mg/dL
same,POTASSIUM,[4],6.95 MEQ/L
same,SODIUM,[4],148.53 MEQ/L
same,TOTAL BILIRUBIN,[4],0.17 mg/dL
same,TOTAL PROTEIN,[4],6.03 G/DL
same,URIC ACID,[4],1.6 mg/dL
